Reference: patent publication US11214803B2, “Modulators of YAP1 expression” (Ionis Pharmaceuticals, Inc., priority 2019, dated 2022)
Values joined by “and” are separate entries in the source; they are usually repeats but may differ in a detail not shown here. Equal values may be shown once. Strand notation (5' to 3'): a small letter for the sugar, then the base; units joined by * are phosphorothioate-linked, units joined directly phosphodiester-linked; [ ] holds rarer units or linkages, { } end groups; capitals alone tell only the bases. e = 2'-O-(2-methoxyethyl) (MOE); k = constrained ethyl (cEt); [5mC] = 5-methylcytosine; d = 2'-deoxy (DNA); m = 2'-O-methyl

How the values were obtained:
Yap1 mRNA [1] = assay: Dose-dependent inhibition of human Yap1 in SNU-449 cells (Example 9, RTS36584); type: cell-based; settings: free uptake; for % UTC (Yap1 mRNA): approximately 48 hours; for IC50: linear regression on a log/linear plot
Summary of the method: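 SNU-449 cells (10,000/well) took up modified oligonucleotides by free uptake at a range of doses for about 48 h. Yap1 mRNA was quantified with primer-probe set RTS36584, normalised to RIBOGREEN total RNA and expressed as % untreated control; IC50 from linear regression on log/linear plot.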

Yap1 mRNA [2] = assay: Inhibition of human Yap1 mRNA in SNU449 hepatocellular carcinoma xenograft tumors (Example 26); type: in vivo; settings: SNU449 xenografts in NSG mice, 50 mg/kg twice weekly for five days, relative to PBS treated animals
Method: A SNU449 hepatocellular carcinoma xenograft tumor model was used to evaluate activity of modified oligonucleotides targeted to human Yap1. Ten million SNU449 cells in 30% matrigel were implanted subcutaneously into the flanks of female NOD Cg-Prkdcscid ll2rgtm1Wjl/SzJ (NSG) mice (from Jackson Laboratory) at 4-6 weeks of age. When tumors reached an average volume of 100 mm^3, approximately two weeks post-implantation, groups of four mice each were administered at 50 mg/kg twice weekly with modified oligonucleotides for five days. Tumors were collected and tested for Yap1 mRNA knockdown by RT-qPCR. Yap1 mRNA levels were measured as previously described using the Human Yap1 primer-probe set RTS4814. Yap1 mRNA levels were normalized to actin-beta content, as measured by primer probe set RTS5002. Results are presented in the tables below as percent control of the amount of Yap1 mRNA relative to PBS treated animals (% control).

[3] = Tolerability in Balb/c mice, plasma chemistry markers (Example 11); type: in vivo; settings: 50 mg/kg subcutaneously twice a week for four weeks
Method: Balb/c mice were treated with modified oligonucleotides selected from studies described above and evaluated for changes in the levels of various plasma chemistry markers.
(§1) Groups of male Balb/c mice at 4-6 weeks of age (obtained from Taconic) were injected subcutaneously twice a week for four weeks (for a total of 8 treatments) with 50 mg/kg of modified oligonucleotides. One group of male Balb/c mice was injected with PBS. Mice were euthanized on day 26 post start of treatment (24 hours following the final administration).

Yap1 mRNA [4] = assay: Dose-dependent inhibition of human Yap1 in A-431 cells (Example 7, 10,000 cells per well, RTS36584); type: cell-based; settings: free uptake
Summary of the method: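 A-431 cells at 10,000 per well received modified oligonucleotides by free uptake at several doses. After about 48 hours, Yap1 mRNA was quantified with primer-probe set RTS36584, normalized to RIBOGREEN total RNA and expressed as % untreated control. IC50 came from linear regression on a log/linear plot.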

[5] = Tolerability in CD-1 mice, plasma chemistry markers (Example 15); type: in vivo; settings: male CD-1 mice, 50 mg/kg s.c. twice a week for four weeks (8 treatments), day 26
Method: CD-1 mice were treated with modified oligonucleotides selected from studies described above and evaluated for changes in the levels of various plasma chemistry markers.
(§2) Groups of four male CD-1 mice at 4-5 weeks of age (obtained from Charles River) were injected subcutaneously twice a week for four weeks (for a total of 8 treatments) with 50 mg/kg of modified oligonucleotides. One group of male CD-1 mice was injected with PBS. Mice were euthanized on day 26 post start of treatment (24 hrs following the final administration).

[6] = Tolerability in Balb/c mice, body and organ weights (Example 11); type: in vivo; settings: 50 mg/kg subcutaneously twice a week for four weeks, end of study
Method: as §1
Body weights of Balb/c mice were measured at the end of the study, and the average body weight for each group is presented in the table below. Modified oligonucleotides that caused any changes in organ weights outside the expected range for modified oligonucleotides were excluded from further studies.

[7] = Tolerability in CD-1 mice, body and organ weights (Example 15); type: in vivo; settings: male CD-1 mice, 50 mg/kg s.c. twice a week for four weeks (8 treatments), end of study (day 26)
Method: as §2
Body weights of CD-1 mice were measured at the end of the study, and the average body weight for each group is presented in the table below. Modified oligonucleotides that caused any changes in organ weights outside the expected range for modified oligonucleotides were excluded from further studies.

Yap1 mRNA [8] = assay: Dose-dependent inhibition of human Yap1 in A-431 cells (Example 6, 5,000 cells per well, RTS4814); type: cell-based; settings: Table 53, A-431 cells
Summary of the method: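 A-431 cells (5,000/well) took up oligonucleotides by free uptake at various doses for about 48 h. Yap1 mRNA was measured by RT-PCR (RTS4814), normalised to RIBOGREEN total RNA and expressed as % untreated control; IC50 by linear regression on a log/linear plot.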

## 1197269 (kT*kA*kA*dA*mG*dT*dG*dT*dA*dT*dG*dT*d[5mC]*kA*kG*kA; antisense) [compound 1197269]
Yap1 mRNA [1]; 31.3 nM
  % UTC (Yap1 mRNA): 48 % UTC
Yap1 mRNA [1]; 125.0 nM
  % UTC (Yap1 mRNA): 21 % UTC
Yap1 mRNA [1]; 500.0 nM
  % UTC (Yap1 mRNA): 7 % UTC
Yap1 mRNA [1]; 2000.00 nM
  % UTC (Yap1 mRNA): 1 % UTC
Yap1 mRNA [1]
  IC50: < 30 nM
Yap1 mRNA [2]
  Yap1 mRNA in tumors, % control: 57 % control

## 715483 (k[5mC]*kT*k[5mC]*dT*dT*dT*dG*dG*dA*dA*dA*d[5mC]*d[5mC]*kA*kT*kT) [compound 715483]
[3]
  ALT: 62 U/L
  AST: 70 U/L
  BUN: 16 mg/dL
  TBIL: 0.17 mg/dL
Yap1 mRNA [4]; 15.6 nM, A-431 cells, 10,000 cells per well, approximately 48 hours
  Yap1 mRNA, % UTC: 88 % UTC and 87 % UTC and 77 % UTC
Yap1 mRNA [4]; 62.5 nM, A-431 cells, 10,000 cells per well, approximately 48 hours
  Yap1 mRNA, % UTC: 40 % UTC and 45 % UTC and 36 % UTC
Yap1 mRNA [4]; 4000.00 nM, A-431 cells, 10,000 cells per well, approximately 48 hours
  Yap1 mRNA, % UTC: 4 % UTC and 3 % UTC
Yap1 mRNA [4]; Table 56, 15.6 nM, A-431 cells 10,000 cells per well, 48 hours
  Yap1 mRNA, % UTC: 78 % UTC
Yap1 mRNA [4]; Table 56, 62.5 nM, A-431 cells 10,000 cells per well, 48 hours
  Yap1 mRNA, % UTC: 38 % UTC
Yap1 mRNA [4]; Table 56, 4000.00 nM, A-431 cells 10,000 cells per well, 48 hours
  Yap1 mRNA, % UTC: 6 % UTC
Yap1 mRNA [4]; Table 56, A-431 cells 10,000 cells per well
  IC50: 50 nM
Yap1 mRNA [4]; Table 57, 15.6 nM, A-431 cells 10,000 cells per well, 48 hours
  Yap1 mRNA, % UTC: 79 % UTC
Yap1 mRNA [4]; Table 57, 62.5 nM, A-431 cells 10,000 cells per well, 48 hours
  Yap1 mRNA, % UTC: 45 % UTC
Yap1 mRNA [4]; Table 57, 4000.00 nM, A-431 cells 10,000 cells per well, 48 hours
  Yap1 mRNA, % UTC: 4 % UTC
Yap1 mRNA [4]; Table 57, A-431 cells 10,000 cells per well
  IC50: 100 nM
Yap1 mRNA [4]; Table 58, 15.6 nM, A-431 cells 10,000 cells per well, 48 hours
  Yap1 mRNA, % UTC: 84 % UTC
Yap1 mRNA [4]; Table 58, 62.5 nM, A-431 cells 10,000 cells per well, 48 hours
  Yap1 mRNA, % UTC: 44 % UTC
Yap1 mRNA [4]; Table 58, 4000.00 nM, A-431 cells 10,000 cells per well, 48 hours
  Yap1 mRNA, % UTC: 5 % UTC
Yap1 mRNA [4]; Table 58, A-431 cells 10,000 cells per well
  IC50: 100 nM
Yap1 mRNA [4]; Table 59, 15.6 nM, A-431 cells 10,000 cells per well, 48 hours
  Yap1 mRNA, % UTC: 83 % UTC
Yap1 mRNA [4]; Table 59, 62.5 nM, A-431 cells 10,000 cells per well, 48 hours
  Yap1 mRNA, % UTC: 44 % UTC
Yap1 mRNA [4]; Table 59, 4000.00 nM, A-431 cells 10,000 cells per well, 48 hours
  Yap1 mRNA, % UTC: 4 % UTC
Yap1 mRNA [4]; Table 59, A-431 cells 10,000 cells per well
  IC50: 100 nM
Yap1 mRNA [4]; Table 60, 15.6 nM, A-431 cells 10,000 cells per well, 48 hours
  Yap1 mRNA, % UTC: 79 % UTC
Yap1 mRNA [4]; Table 60, 62.5 nM, A-431 cells 10,000 cells per well, 48 hours
  Yap1 mRNA, % UTC: 40 % UTC
Yap1 mRNA [4]; Table 60, 4000.00 nM, A-431 cells 10,000 cells per well, 48 hours
  Yap1 mRNA, % UTC: 3 % UTC
Yap1 mRNA [4]; Table 60, A-431 cells 10,000 cells per well
  IC50: 100 nM
Yap1 mRNA [4]; Table 61, 15.6 nM, A-431 cells 10,000 cells per well, 48 hours
  Yap1 mRNA, % UTC: 80 % UTC
Yap1 mRNA [4]; Table 61, 62.5 nM, A-431 cells 10,000 cells per well, 48 hours
  Yap1 mRNA, % UTC: 38 % UTC
Yap1 mRNA [4]; Table 61, 4000.00 nM, A-431 cells 10,000 cells per well, 48 hours
  Yap1 mRNA, % UTC: 4 % UTC
Yap1 mRNA [4]; Table 61, A-431 cells 10,000 cells per well
  IC50: 100 nM
[5]
  ALB: 2.2 g/dL
  ALT: 79 U/L
  AST: 125 U/L
[6]
  Kidney weight: 0.43 g
  Liver weight: 1.56 g
  Spleen weight: 0.12 g
  body weight: 25 g
[7]
  Kidney weight: 0.64 g
  Liver weight: 2.26 g
  Spleen weight: 0.21 g
  body weight: 40 g
Yap1 mRNA [8]; Yap1 mRNA, linear regression on a log/linear plot
  IC50: 1100 nM
Yap1 mRNA [8]; free uptake, 148 nM, approximately 48 hours, RTS4814
  % UTC 148 nM: 82 % UTC
Yap1 mRNA [8]; free uptake, 444 nM, approximately 48 hours, RTS4814
  % UTC 444 nM: 58 % UTC
Yap1 mRNA [8]; free uptake, 1333 nM, approximately 48 hours, RTS4814
  % UTC 1333 nM: 43 % UTC
Yap1 mRNA [8]; free uptake, 4000 nM, approximately 48 hours, RTS4814
  % UTC 4000 nM: 35 % UTC

## 1198673 (kG*kA*dT*dT*dT*dA*dG*dG*dA*dT*dG*d[5mC]*kA*eT*kG*eG; antisense) [compound 1198673]
Yap1 mRNA [1]; 31.3 nM
  % UTC (Yap1 mRNA): 51 % UTC
Yap1 mRNA [1]; 125.0 nM
  % UTC (Yap1 mRNA): 26 % UTC
Yap1 mRNA [1]; 500.0 nM
  % UTC (Yap1 mRNA): 8 % UTC
Yap1 mRNA [1]; 2000.00 nM
  % UTC (Yap1 mRNA): 3 % UTC
Yap1 mRNA [1]
  IC50: < 30 nM
Yap1 mRNA [2]
  Yap1 mRNA in tumors, % control: 52 % control

## 1198641 (kA*kT*dT*dA*dG*dA*dG*dT*dA*dT*dG*dT*kG*eG*k[5mC]*eA; antisense) [compound 1198641]
Yap1 mRNA [1]; 31.3 nM
  % UTC (Yap1 mRNA): 55 % UTC
Yap1 mRNA [1]; 125.0 nM
  % UTC (Yap1 mRNA): 29 % UTC
Yap1 mRNA [1]; 500.0 nM
  % UTC (Yap1 mRNA): 11 % UTC
Yap1 mRNA [1]; 2000.00 nM
  % UTC (Yap1 mRNA): 3 % UTC
Yap1 mRNA [1]
  IC50: 30 nM
Yap1 mRNA [2]
  Yap1 mRNA in tumors, % control: 68 % control
